Blank lines part the entries; values can stand above or below the compound they belong to.
Tests used:
[1] = tested on: Mus musculus; experiment: Antiinflammatory activity in ovalbumin-sensitised Balb/c mouse assessed as reduction in ovalbumin-induced eosinophil count in bronchoalveolar lavage fluid at 1 mg/kg, ip administered 1 hr before and 7 hrs after ovalbumin challenge measured after 8 hrs by haemocytometeric analysis; assay type: functional; conditions: Lung, route intraperitoneal
[2] = Drug degradation at pH 8 after 24 hrs; assay type: physicochemical; conditions: buffer, read-out: Drug degradation
[3] = Stability assessed as drug degradation by measuring 2,2'-(5-chloro-3-(2-fluorobenzylcarbamoyl)-2-oxoindoline-1,3-diyl)diacetic acid formation at pH > 6 after 24 hrs; assay type: physicochemical
[4] = Drug degradation at pH 7.4 after 24 hrs; assay type: physicochemical; conditions: buffer, read-out: Drug degradation
[5] = Stability assessed as drug degradation by measuring 2-(5-chloro-3-(2-(2-fluorobenzylamino)-2-oxoethyl)-2-oxoindolin-1-yl)acetic acid formation at pH > 6 after 24 hrs; assay type: physicochemical
[6] = Half life in human plasma; assay type: ADME, cell-free
[7] = target: T1, Prostaglandin D2 receptor 2 (Homo sapiens, UniProt Q9Y5Y4); experiment: Displacement of [3H]PGD2 from human CRTH2 receptor expressed in CHO cells after 90 mins by scintillation proximity assay; assay type: cell-based
T1 sequence (Q9Y5Y4 whole entry): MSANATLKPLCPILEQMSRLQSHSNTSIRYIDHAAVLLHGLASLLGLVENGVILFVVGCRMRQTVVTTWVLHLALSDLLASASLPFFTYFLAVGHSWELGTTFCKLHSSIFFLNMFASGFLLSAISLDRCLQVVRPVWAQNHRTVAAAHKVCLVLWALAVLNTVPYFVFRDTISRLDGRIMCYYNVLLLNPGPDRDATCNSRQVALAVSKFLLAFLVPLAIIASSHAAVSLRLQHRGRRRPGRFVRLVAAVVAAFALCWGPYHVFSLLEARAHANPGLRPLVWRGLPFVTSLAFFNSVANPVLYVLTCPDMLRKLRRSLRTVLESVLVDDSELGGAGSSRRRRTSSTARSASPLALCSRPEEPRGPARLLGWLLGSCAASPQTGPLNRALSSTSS

[8] = Drug degradation at pH 9 after 24 hrs; assay type: physicochemical; conditions: buffer, read-out: Drug degradation
[9] = Apparent permeability of the compound in human Caco2 cells; assay type: ADME, cell-based; conditions: Caco-2
[10] = Drug degradation in human plasma after 24 hrs; assay type: ADME, cell-free; conditions: read-out: Drug degradation
[11] = Clearance in Sprague-Dawley rat at 1 mg/kg, iv and 5 mg/kg, po; assay type: ADME, organism-based; conditions: in vivo
[12] = Fraction unbound in human plasma; assay type: ADME, cell-free
[13] = Oral bioavailability in Sprague-Dawley rat at 5 mg/kg; assay type: ADME, organism-based; conditions: in vivo

Compound: C[C@@H]1C[C@H]2[C@@H]3CCC4=CC(=O)C=C[C@]4(C)[C@@]3(F)[C@@H](O)C[C@]2(C)[C@@]1(O)C(=O)CO [DEXAMETHASONE]
inhibition in vivo at 1 mg/kg [1]: 83%

Compound: O=C(O)CN1C(=O)[C@@]2(CC(=O)N(Cc3ccccc3F)C2=O)c2cc(Cl)ccc21
degraded at 24 h [2]: 50% | Stability [3]: Unstable | degraded at 24 h [4]: 25% | Stability [5]: Unstable | half-life [6]: 1 h

Compound: CN1C(=O)N(Cc2cn(-c3ccccc3)nc2-c2ccccc2)C(=O)C12C(=O)N(CC(=O)O)c1ccc(Cl)cc12 (stereo not drawn)
Ki [7]: 96 nM

Compound: O=C(O)CN1C(=O)[C@@]2(CC(=O)N(Cc3cc(Cl)ccc3F)C2)c2cc(Cl)ccc21
degraded at 24 h [8]: < 5% | Papp [9]: 1.8 ×10⁻⁶ cm/s | metabolised at 24 h [10]: < 15% | clearance [11]: 12 mL/min/kg | fraction unbound [12]: < 0.01 | bioavailability [13]: 5%

Other lines, results leading:

Ki [7]: 490 nM
Compound: CC(C)c1nc(CN2C(=O)N(C)C3(C2=O)C(=O)N(CC(=O)O)c2ccc(Cl)cc23)cs1 (stereo not drawn)

Ki [7]: 750 nM
Compound: CN1C(=O)N(Cc2nc3ccccc3s2)C(=O)C12C(=O)N(CC(=O)O)c1ccc(Cl)cc12 (stereo not drawn)

Ki [7]: 280 nM
Compound: COc1c(C)cnc(CN2C(=O)N(C)C3(C2=O)C(=O)N(CC(=O)O)c2ccc(Cl)cc23)c1C (stereo not drawn)

Ki [7]: 110 nM
Compound: CCCN1C(=O)N(Cc2cc(Cl)ccc2F)C(=O)[C@]12C(=O)N(CC(=O)O)c1ccc(Cl)cc12

Ki [7]: 390 nM
Compound: O=C(O)CN1C(=O)C2(NC(=O)N(Cc3ccccc3F)C2=O)c2cc(Cl)ccc21 (stereo not drawn)

— ChEMBL document CHEMBL2040789, “Optimization of the Central Core of Indolinone-Acetic Acid-Based CRTH2 (DP2) Receptor Antagonists” (ACS Med Chem Lett, 2011)
